Entries after “also recorded” stand apart in the source; their conditions may differ. Like-named read-outs stand apart in the source and are kept apart here.
Key:
Apo-E KO mice = assay: Assessment of atherosclerosis: lesion area in the aortic sinus; assay type: in vivo, mouse
IL-10 [1] = assay: RT-PCR cytokine expression in the aorta: IL-10; assay type: in vivo, mouse
Experimental: (§1) The effect of ALLE, CI-201, its corresponding acetal derivatives Et-acetal and Me-acetal (Compounds IIa and IIb, FIG. 10) and oxLDL on cytokine expression in the target organ—the aorta—was evaluated using RT-PCR as described hereinabove. […] Oral administrations took place 5 times every other day.

IFN-γ [2] = assay: RT-PCR cytokine expression in the aorta: IFN-γ; assay type: in vivo; conditions: oral 1 mg/mouse 5 times every other day, 8 weeks after final administration
Experimental: as §1

IL-12 = assay: RT-PCR cytokine expression in the aorta: IL-12; assay type: in vivo; conditions: oral 1 mg/mouse 5 times every other day, 8 weeks after final administration
Experimental: as §1

Serum Amyloide A (SAA) = assay: Inflammatory markers in serum (ELISA): SAA; assay type: in vivo; conditions: oral 0.1 μg/mouse 5 times every other day; day 0, 2 and 4 weeks; control group dramatically increased
Experimental: (§2) Inflammatory Markers Evaluation in Serum: Serum was separated by centrifuge and stored at −70° C. Analysis of inflammatory markers was performed by ELISA (IL-10; R&D and SAA; BIOSOURCE).
(§3) Thus, Apo-E KO mice were orally administered with 0.1 μg/mouse CI-201 or 0.2 ml/mouse PBS, 5 times every other day. Mice serum was collected before treatment (day 0), at the end of the treatment (two weeks) and two weeks thereafter (4 weeks) and the level of the inflammation markers IL-10 and Serum Amyloide A (SAA) were evaluated.

Lewis rats = assay: Adjuvant-induced arthritis (AIA) in Lewis rats; assay type: in vivo, rat
IL12p40 [3] = assay: p40 production by activated BMDC's (ELISA); assay type: cell-based, mouse
IL-10 [4] = conditions: oral 0.1 μg/mouse 5 times every other day
Experimental: as §2, §3

IL-10 and IFN-γ = conditions: oral 1 mg/dose 5 times every other day
Experimental: The effects of CI-201 treatment on cytokine expression in the targeted organ—the aorta, as well as in the spleen, liver, kidneys and small intestine were evaluated using RT-PCR as described hereinabove. Apo-E KO mice were orally administered with 1 mg/dose CI-201 or with 0.2 ml/mouse PBS, 5 times every other day. The expression of the anti-inflammatory cytokine IL-10 and the pro-inflammatory cytokine IFN-γ were determined 8 weeks after final oral administration.

IFN-γ [5] = conditions: in vivo oral treatment (0.1 μg/feed C57BL/6, ovalbumin; 10 and 100 μg/mouse/feed SJL, PLP 139-151); ex vivo restimulation
Experimental: (FIG. 26a) C57BL/6 mice were fed in alternate days from day −10 to day +10 with CI-201 (0.1 μg/feed) of PBS. On day 0, mice were immunized with ovalbumin in CFA. On day 10, draining lymph nodes were excised and cells stimulated with ovalbumin. Cells were expanded for a week and then re-stimulated for 4 hours with plate bound anti-CD3 and anti-CD28 (5 μg/ml) in the presence of monensin (2 μM) and tested for cytokine expression by intracellular staining. Results are gated on CD4+ T cells. […] Lymph nodes were collected 10 days later, stimulated ex vivo with 10 μg/ml of PLP 139-151 peptide or 0.5 μg/ml of anti CD3 and three days later supernatants were collected and tested by ELISA for cytokine production.
Lymph nodes were collected 10 days later, stimulated ex vivo with 10 μg/ml of PLP 139-151 peptide or 0.5 μg/ml of anti CD3 and three days later cytokine production from the supernatant was measured using the Duoset ELISA kit (R&D systems, Minneapolis, Minn.).
Ex-vivo ELISA and Intracellular staining: For intracellular staining, C57BL/6 were orally administered with CI-201 (0.1 μg/mouse/feed) or PBS as control, 5 times, once every other day. Dosing volume was 0.2 ml. Subsequently, mice were immunized subcutaneously in two flanks with 200 μl of emulsion containing 200 μg of ovalbumin and MT (100 μg). […]

TNF-α [6] = conditions: BMDC's, activators other than PolyI:C
Experimental: Isolation of bone-marrow derived dendritic cells (BMDC's): Bone-marrow was flushed out with cold RPMI-1640 from mice femur and tibia. […] Cells were then washed, resuspended in the same buffer, and depleted from B and T cells on a Midi-Macs separation unit through a LD or LS column (Miltenyi biotech). The depleted cells were then counted, washed and seeded (10^6/ml) in medium containing RPMI-1640, L-glutamine, β-mercaptoethanol, 10% FCS, antibiotics (Penicillin, Streptomycin) and 20 ng/ml of mouse GM-CSF (Peprotech, Rehovot, Israel). Medium was replaced every other day and cells were used for subsequent experiments on days 5-6 post culturing.
(§4) Cytokine analysis: For the detection of cytokine production, supernatants from BMDC's and Mo-DC's following a 24 hour treatment were tested with Duoset ELISA kits for mouse IL12p40, TNF-α, IL-6 and human IL12p40 and TNF-α (R&D systems, Minneapolis, Minn.) respectively.

IL-6 = conditions: BMDC's, PGN activation
Experimental: BMDC's were incubated for 1 hour with different CI-201 concentrations prior to activation with 10 μg/ml of PGN. Supernatant were collected 24 hours following activation and the levels of IL-6 (FIG. 3M) and IL-1 (FIG. 3N) were measured.
as §4

IL-1 = conditions: BMDC's, PGN activation
Experimental: Supernatant were collected 24 hours following activation and the levels of IL-6 (FIG. 3M) and IL-1 (FIG. 3N) were measured.
Isolation of bone-marrow derived dendritic cells (BMDC's): Bone-marrow was flushed out with cold RPMI-1640 from mice femur and tibia. A cell suspension was prepared and erythrocytes were removed using red blood cell (RBC) lysis buffer (Beit Haemek, Israel). […] Cells were then washed, resuspended in the same buffer, and depleted from B and T cells on a Midi-Macs separation unit through a LD or LS column (Miltenyi biotech). The depleted cells were then counted, washed and seeded (10^6/ml) in medium containing RPMI-1640, L-glutamine, β-mercaptoethanol, 10% FCS, antibiotics (Penicillin, Streptomycin) and 20 ng/ml of mouse GM-CSF (Peprotech, Rehovot, Israel). Medium was replaced every other day and cells were used for subsequent experiments on days 5-6 post culturing.

IL-23p19 = conditions: CD11c+ BMDC's, CI-201 20 μg/ml, PGN 10 μg/ml
CD11c+BMDC's = conditions: 3 hours PGN 10 μg/ml with CI-201 20 μg/ml
Experimental: Gene Chip analysis: Mouse BMDC's were enriched for CD11c+DC (>90%) with mouse CD11c microbeads from 5-6 days cultures over MS or LS columns (Miltenyi biotech). […] RNA was prepared and used to generate cRNA. Preparation of cRNA, hybridization and scanning was done in the Weizmann Institute of Science (Rehovot, Israel) on the mouse genome 430A 2.0 array (Affymetrix, Santa Clara, Calif.).

IL12p40 [7] = conditions: human Mo-DC's, PGN 10 μg/ml, 24 hours
Experimental: (§5) Supernatants were collected 24 hours following activation and the levels of p40 (FIG. 30a) and TNF-α (FIG. 30b) were measured by ELISA.
(§6) Isolation of human monocyte derived dendritic cells (Mo-DC's): PBMCs were isolated from heparinized whole blood from healthy donors by Ficoll-Paque (Amersham, Uppsala, Sweden). Cells were incubated at 4° C. for 15 minutes in buffer containing PBS, 0.5% bovine serum albumin (BSA) and 2 mM EDTA with human CD14 microbeads (Miltenyi biotech) washed and positively selected on a Midi-Macs separation unit through LS column. The resulting cells were counted washed and seeded (10^6/ml) in medium containing RPMI-1640, L-glutamine, 3-mercaptoethanol, 10% FCS, antibiotics (Penicillin, Streptomycin), non essential amino acids, sodium pyruvate, 40 ng/ml of human GM-CSF and 20 ng/ml of human IL-4 (R&D systems, Minneapolis, Minn.). Medium was replaced every other day and cells were used for subsequent experiments on days 5-6 post culturing. Cell purity was >75% as determined by FACS for CD11c.
as §4

TNF-α [8] = conditions: human Mo-DC's, PGN 10 μg/ml, 24 hours
Experimental: as §5, §6, §4

p40 [9] = conditions: PBMC's from two donors, IFN-γ over-night, PGN 24 hours; all tested concentrations
Experimental: (§7) PBMC's from healthy donors were incubated over-night with IFN-γ and then activated with PGN in the presence of CI-201 for another 24 hours. Supernatants were then evaluated for p40 and TNF-α production.

TNF-α [10] = conditions: IFN-γ, PGN
Experimental: as §7

p40 [11] = conditions: splenic CD11b cells, IFN-γ over night, PGN 24 hours
Experimental: (§8) Isolation of Monocytes/Macrophages: Spleens were removed and a cell suspension was prepared. Erythrocytes were depleted using red blood cell (RBC) lysis buffer (Beit Haemek, Israel). Cells were washed in phosphate buffer saline (PBS) (Beit Haemek, Israel), and incubated in 4° C. for 15 min in buffer containing PBS and 0.5% bovine serum albumin (BSA) with mouse CD11b microbeads (Miltenyi biotech, Bergisch Gladbach, Germany). Cells were then washed, resuspended in the same buffer and positively selected on a Mini-Macs separation unit through a MS column (Miltenyi biotech).
(§9) In order to assess CI-201 effect on p40 production by macrophages, splenic CD11b cells were incubated over night with IFN-γ and then activated for 24 hours with PGN in the presence CI-201.

TNF-α [12] = conditions: splenic CD11b cells, IFN-γ over night, PGN 24 hours
Experimental: as §8, §9

IL-12p35 = assay: Q-PCR RNA expression in CD11c+ BMDC's: IL-12p35; conditions: CI-201 20 μg/ml, PGN 10 μg/ml
IL-27p28 = assay: Q-PCR RNA expression in CD11c+ BMDC's: IL-27p28; conditions: CI-201 20 μg/ml, PGN 10 μg/ml
IL-12/IL-23p40 = assay: Q-PCR RNA expression in CD11c+ BMDC's: IL-12/IL-23p40; conditions: CI-201 20 μg/ml, PGN 10 μg/ml, first 6 hours following activation, normalized to GAPDH

## CCCCCCCCCCCCCCCCOC[C@H](COP(=O)([O-])OCC[N+](C)(C)C)OCCCCC(=O)O [CI-201, 1-Hexadecyl-2-(5′-Carboxy-butyl)-sn-glycero-3-phosphocholine]
Apo-E KO mice; oral 0.1 μg/dose, 3 monthly sets of 5 administrations, 12 weeks after first feeding, 26-28 weeks old mice
  Aortic Sinus Lesion: 228,000±25,772 μm^2
Apo-E KO mice; oral 0.1 μg/dose, P<0.05
  decrease in atherosclerotic lesion in the aortic sinus as compared with the PBS treated group: 92%
Apo-E KO mice; oral 1 μg/dose, 3 monthly sets of 5 administrations, 12 weeks after first feeding, 26-28 weeks old mice
  Aortic Sinus Lesion: 295,729 ± 20,909 μm^2
Apo-E KO mice; oral 10 μg/dose, 3 monthly sets of 5 administrations, 12 weeks after first feeding, 26-28 weeks old mice
  Aortic Sinus Lesion: 272,483 ± 20,505 μm^2
Apo-E KO mice; oral 0.025 mg/dose, 8 weeks, P=0.051
  decrease of the aortic sinus lesion versus PBS control: 33%
Apo-E KO mice; oral 0.1, 1 or 10 μg/dose tested
  most effective dose for inhibiting disease progression: 0.1 μg/dose
Apo-E KO mice; oral 0.1, 1 or 10 μg/dose, 3 monthly sets
  disease progression (lesion area versus base line group): completely inhibited disease progression; also recorded: inhibited the disease progression
Apo-E KO mice; oral administration
  atherogenesis in Apo-E KO mice, oral administration (summary of earlier examples): substantially inhibited atherogenesis
Apo-E KO mice; oral gavage 0.025 mg/dose every day (5 times a week) for 8 weeks, male 12 weeks old mice
  Aortic Sinus Lesion: 125,192±19,824 μm^2
IL-10 [1]; oral 0.025 mg/dose, 8 weeks
  IL-10 expression in the aorta, higher than control group: 40%
IL-10 [1]; oral 1 mg/mouse 5 times every other day, 8 weeks after final administration
  IL-10 expression in the aorta versus PBS: elevated levels
IFN-γ [2]
  IFN-γ expression in the aorta versus PBS: reduced expression level
IL-12
  IL-12 expression in the aorta versus PBS: reduced levels
Serum Amyloide A (SAA)
  SAA serum levels: no alterations
Lewis rats; continuous treatment, high dose: 5 feedings before induction, then 3 times a week for about 30 days
  arthritis development (paw swelling, arthritis score, percentage of rats with symptoms): substantially attenuated arthritis development
Lewis rats; oral pre-treatment 4.0 mg/kg 5 times every other day before AIA induction
  paw swelling versus PBS-pretreated rats: significant decrease
Lewis rats; oral pre-treatment with the higher dose (4 mg/kg) before AIA induction
  mobility: close to that of normal rats
IL12p40 [3]; BMDC's, 1 hour pre-incubation, activation with PGN (TLR 2/6) 10 μg/ml, 24 hours
  p40 production: significant and dose dependent reduction
IL12p40 [3]; BMDC's, CpG (TLR9) engagement, only 20 μg/ml of CI-201
  p40 secretion: significantly inhibit
IL12p40 [3]; BMDC's, Fc-CD40L activation 1 μg/ml
  p40 secretion: significant reduction
IL12p40 [3]; BMDC's, PolyI:C (TLR3) activation 25 μg/ml
  p40 production: significant and dose dependent p40 inhibition
IL12p40 [3]; BMDC's, activation with LPS (TLR4) 100 ng/ml, intermediated concentrations of CI-201
  p40 levels: significant, but small reduction
IL12p40 [3]; BMDC's, activation with Pam3CSK4 (TLR1/2) 300 ng/ml, 24 hours
  p40 production: significant p40 inhibition
IL12p40 [3]; activated DC's in vitro
  concentration giving maximal inhibition of p40 production (highest concentration used): 20 µg/mL
IL-10 [4]; 2 weeks after end of treatment (4 weeks)
  IL-10 serum level: decay
IL-10 [4]; end of the treatment (2 weeks)
  IL-10 serum level: substantial increase
IL-10 and IFN-γ; 8 weeks after final administration
  cytokine expression in the spleen and in the small intestine versus PBS: no differences
IL-10 and IFN-γ; data not shown
  cytokine expression in the liver and in kidney: No change
IFN-γ [5]
  IFN-γ production by CD4+ T cells: reduced IFN-γ production
TNF-α [6]
  production of TNF-α: did not impair
IL-6
  production of IL-6: did not impair
IL-1
  production of IL-1: did not impair
IL-23p19
  RNA expression level of p19: substantial inhibition
CD11c+BMDC's
  p19 expression (gene chip): reduced p19 expression
  p40 RNA expression (gene chip): reduced RNA expression
IL12p40 [7]
  p40 production: can inhibit p40 production
TNF-α [8]
  ability to produce TNF-α: without altering
p40 [9]
  p40 production: close to complete inhibition
TNF-α [10]; PBMC's from donor I
  TNF-α production: did not impair
TNF-α [10]; PBMC's from donor II
  TNF-α levels: modest reduction
p40 [11]
  p40 production levels versus control cells: no major differences
TNF-α [12]
  TNF-α production levels versus control cells: no major differences
IL-12p35
  RNA expression level of p35: did not modify
IL-27p28
  RNA expression level of p28: did not modify
IL-12/IL-23p40
  p40 RNA expression, inhibition compared to control: more than two folds

Source: patent publication US8501715B2, “Oxidized lipids and uses thereof in the treatment of inflammatory diseases and disorders” (Vascular Biogenics Ltd., priority 2003, dated 2013)
